From ChEMBL document CHEMBL4819059, “3-Hydroxy-4-methyldecanoic Acid-Containing Cyclotetradepsipeptides from an Endolichenic Beauveria sp” (J Nat Prod, 2021) come the findings set out here.

The source made the active and inactive calls. No cut-off for these calls is given here.

What all share (type): functional, cell-based
The subject of one assay is HEI-OC1. The experiment in a line: Protective activity against […] HEI-OC1 cells assessed as cell viability at 10 uM after 48 hrs by CCK8 assay.
The subject of assay [1] is L6. The experiment in a line: Induction of glucose uptake in rat L6 myoblasts at 50 uM after 24 hrs.
Assay [2] concerns L6. The experiment in a line: Induction of glucose uptake in rat L6 myotubes after 24 to 48 hrs. The note with it: dose 2.5-80 µM, time 24-48 hrs.
The subject of assay [3] is L6. Kind of assay: Induction of glucose uptake in rat L6 myoblasts after 24 hrs. The note with it: dose 0.3125-80 µM.

On to `CCCCCC[C@H](C)[C@@H]1CC(=O)N[C@@H](Cc2ccc(O)cc2)C(=O)N[C@@H](Cc2ccccc2)C(=O)N[C@H]([C@@H](C)CC)C(=O)O1`, for which, in the assay on HEI-OC1, the outcome was Active.
With `CCCCCC[C@H](C)[C@@H]1CC(=O)N[C@@H](Cc2c[nH]c3ccccc23)C(=O)N[C@@H](Cc2ccccc2)C(=O)N[C@H](CC(C)C)C(=O)O1`, the result with HEI-OC1 was Active.
Consider `CCCCCCC(C)[C@@H]1CC(=O)N[C@@H](Cc2ccc(O)cc2)C(=O)N[C@@H](Cc2ccc(O)cc2)C(=O)N[C@H]([C@@H](C)CC)C(=O)O1` (some centres undefined), for which the result in the assay with L6 [1] was Active.
Still for that read-out and setting: the same measure for `CCCCCC[C@H](C)[C@@H]1CC(=O)N[C@@H](Cc2c[nH]c3ccccc23)C(=O)N[C@@H](Cc2ccc(O)cc2)C(=O)N[C@H](CC(C)C)C(=O)O1`: “Active”; for `CCCCCC[C@H](C)[C@@H]1CC(=O)N[C@@H](Cc2c[nH]c3ccccc23)C(=O)N[C@@H](Cc2ccc(O)cc2)C(=O)N[C@H]([C@@H](C)CC)C(=O)O1`: “Active”.
Regarding `CCCCCC[C@H](C)[C@@H]1CC(=O)N[C@@H](Cc2c[nH]c3ccccc23)C(=O)N[C@@H](Cc2ccccc2)C(=O)N[C@H]([C@@H](C)CC)C(=O)O1`, the result in the assay with L6 [1] and in the assay with HEI-OC1 was Active. Moreover, the Activity result in the assay on L6 [2] and with L6 [3] was “Dose-Dependent Effect” in each case.
